Counter-ions that a name gives are not always drawn. Like-named read-outs stand apart in the source and are kept apart here.

Results on 11 molecules are retold here after patent EP0080305A1, “Antiviral 2'-deoxyuridines, their preparation and use” (BEECHAM GROUP PLC, priority 1981, dated 1983).

In series [1] the test system is Vero (African Green Monkey Kidney) cells. As to the kind of experiment: Minimum concentration killing the Vero cell monolayer, read in the plaque reduction test. Particulars: minimum concentration which killed the cell monolayer; virus-infected Vero cells, 6 days at 37°C. In kind it is cell-based. As to the method:
(§1) Vero (African Green Monkey Kidney) cells were grown to confluence in 6 well multidishes, each well being 3.5 cm in diameter. The cells were incubated with Herpes simplex type 1 virus (HFEM strain) and overlaid with 0.5 mL of 0.9% agarose (w/v) in maintenance medium containing the test compound at a range of concentrations from 3 µg/mL in half-log dilution steps. The virus infected cultures were then incubated at 37 °C for 6 days before fixing in 4% formaldehyde solution and staining with carbolfuchsin. The dishes were then examined to find what concentration of test compound causing a 50% reduction in the number of virus plaques formed (PDD50 value) and the minimum concentration of test compound which killed the cell monolayer, leaving a clear zone devoid of cells and virus plaques (MTD).

For series [2], the system named is Herpes simplex type 1 virus (HFEM strain). Put plainly: Plaque reduction test in Vero cells infected with Herpes simplex type 1 virus. In kind it is cell-based. How it is done:
as §1

Series [3] can be described thus: Minimum concentration killing the Vero cell monolayer, read in the plaque reduction test. The series is classed as cell-based, African Green Monkey. Particulars: african green monkey; minimum concentration which killed the cell monolayer; virus-infected Vero cells, 6 days at 37°C; read-out: MTD. As to the method: as §1
Setting [4] is: concentration causing a 50% reduction in the number of virus plaques, 6 days at 37°C.
[5] abbreviates: same PDD50 values given in µM, 6 days at 37°C, read-out: PDD50 (the source's name).
The mark [6] stands for this setting: Human alphaherpesvirus 1, Vero, 144 h, read-out: PDD50, concentration causing a 50% reduction in the number of virus plaques, 6 days at 37°C.
Setting [7] is: Human alphaherpesvirus 1, Vero, 144 h, read-out: PDD50, same PDD50 values given in µM, 6 days at 37°C.
Setting [8] is: Human alphaherpesvirus 1, 144 h, concentration causing a 50% reduction in the number of virus plaques, 6 days at 37°C, read-out: PDD50 (the source's name).
[9] abbreviates: Human alphaherpesvirus 1, 144 h, same PDD50 values given in µM, 6 days at 37°C, read-out: PDD50 (the source's name).

For the molecule “E-5-(2-Bromovinyl)-3',5'-di-L-alanyl-2'-deoxyuridine bis trifluoroacetate [Example 38]”, the MTD in series [1] is more than 100 µg/mL. Also, the PDD50 in series [2] (setting [4]) is on record as 0.26 µg/mL. For the same molecule, in series [2] (setting [5]), the IC50 was determined as 0.37 µM.

Molecule “E-5-(2-Bromovinyl)-3',5'-di-L-leucyl-2'-deoxyuridine bis trihydrogenpyrophosphate [Example 41]” displayed an MTD in series [1] of more than 100 µg/mL. This molecule also showed a PDD50 in series [2] (setting [4]) of 0.55 µg/mL. Also, in series [2] (setting [5]), the IC50 came out at 0.6 µM.

`CC(C)C[C@H](N)C(=O)OC[C@H]1O[C@@H](n2cc(/C=C/Br)c(=O)[nH]c2=O)C[C@@H]1OC(=O)[C@@H](N)CC(C)C` [Example 16, E-5-(2-Bromovinyl)-3',5'-di-L-leucyl-2'-deoxyuridine trifluoroacetate]: the MCC at 144 h in series [3] is more than 100 µg/mL. The molecule further registered a PDD50 in series [2] (concentration causing a 50% reduction in the number of virus plaques, 6 days at 37°C, trifluoroacetate) of 0.02 µg/mL. Moreover, the IC50 in series [2] (read-out: PDD50, same PDD50 values given in µM, 6 days at 37°C, trifluoroacetate) stood at 0.025 µM.

Turning to `O=C(OC[C@H]1O[C@@H](n2cc(/C=C/Br)c(=O)[nH]c2=O)C[C@@H]1O)[C@@H]1CCCN1` [Example 36, E-5-(2-Bromovinyl)-5'-L-prolyl-2'-deoxyuridine trifluoroacetate], the MCC at 144 h in series [3] was more than 100 µg/mL. The IC50 in series [2] (setting [6]) is 0.55 mg/L; in series [2] (setting [7]) it was 1.01 µM.

Take `CSCC[C@H](NC(=O)OC(C)(C)C)C(=O)OC[C@H]1O[C@@H](n2cc(/C=C/Br)c(=O)[nH]c2=O)C[C@@H]1OC(=O)[C@H](CCSC)NC(=O)OC(C)(C)C` [Example 21, E-5-(2-Bromovinyl)-3',5'-di-(t-butoxy-carbonyl-L-methionyl)-2'-deoxyuridine]: the MCC at 144 h in series [3] was more than 100 µg/mL. In addition, the IC50 in series [2] (setting [8]) was determined as 1.71 mg/L; in series [2] (setting [9]) it was 2.15 µM.

Turning to `NCC(=O)OC[C@H]1O[C@@H](n2cc(/C=C/Br)c(=O)[nH]c2=O)C[C@@H]1OC(=O)CN` [Example 14, E-5-(2-Bromovinyl)-3',5'-di-glycyl-2'-deoxyuridine bis trifluoroacetate], the MCC at 144 h in series [3] was more than 100 µg/mL. Also, the IC50 in series [2] (setting [6]) came out at 0.36 mg/L; in series [2] (setting [7]), 0.53 µM.

In the case of `CC(C)(C)OC(=O)N[C@@H](CCC(N)=O)C(=O)OC[C@H]1O[C@@H](n2cc(/C=C/Br)c(=O)[nH]c2=O)C[C@@H]1OC(=O)[C@H](CCC(N)=O)NC(=O)OC(C)(C)C` [Example 25, E-5-(2-Bromovinyl)-3',5'-di-(t-butoxycarbonyl-L-glutaminyl)-2'-deoxyuridine], the MCC at 144 h in series [3] is more than 100 µg/mL. The IC50 in series [2] (setting [8]) stood at 0.47 mg/L; in series [2] (setting [9]) it was 0.6 µM.

For `O=C(OC[C@H]1O[C@@H](n2cc(/C=C/Br)c(=O)[nH]c2=O)C[C@@H]1OC(=O)[C@@H]1CCCN1)[C@@H]1CCCN1` [Example 35, E-5-(2-Bromovinyl)-3',5'-di-L-prolyl-2'-deoxyuridine bis trifluoroacetate], in series [3], the MCC at 144 h was more than 100 µg/mL. In addition, the IC50 in series [2] (setting [6]) is 0.22 mg/L; in series [2] (setting [7]), 0.29 µM.

Take `CC(C)(C)OC(=O)N[C@H](Cc1ccccc1)C(=O)OC[C@H]1O[C@@H](n2cc(/C=C/Br)c(=O)[nH]c2=O)C[C@@H]1OC(=O)[C@@H](Cc1ccccc1)NC(=O)OC(C)(C)C` [Example 20, E-5-(2-Bromovinyl)-3',5'-di-(t-butoxy-carbonyl-D-phenylalanyl)-2'-deoxyuridine]: the MCC at 144 h in series [3] was more than 100 µg/mL. The IC50 in series [2] (setting [8]) is more than 100 mg/L.

Regarding `CC(C)C[C@@H](N)C(=O)OC[C@H]1O[C@@H](n2cc(/C=C/Br)c(=O)[nH]c2=O)C[C@@H]1OC(=O)[C@H](N)CC(C)C` [Example 30, E-5-(2-Bromovinyl)-3',5'-di-D-leucyl-2'-deoxyuridine bis trifluoroacetate], the MCC at 144 h in series [3] was more than 100 µg/mL. Further, the results for the IC50 in series [2] (setting [6]) and in series [2] (setting [7]) were 0.16 mg/L and 0.2 µM, respectively.

Turning to `CC(C)(C)OC(=O)N[C@@H](Cc1ccccc1)C(=O)OC[C@H]1O[C@@H](n2cc(/C=C/Br)c(=O)[nH]c2=O)C[C@@H]1O` [Example 3, E-5-(2-Bromovinyl)-5'-O-(tertbutoxycarbonylphenylalanyl)-2'-deoxyuridine], the MCC at 144 h in series [3] was more than 100 µg/mL. Also, the IC50 in series [2] (setting [8]) came to 0.25 mg/L; in series [2] (setting [9]), 0.43 µM.
